Patent publication US12421271B2, “Solid forms of (2S,3S,4S,5R,6S)-3,4,5-trihydroxy-6-(((4AR, 10AR)-7-hydroxy-1-propyl-1,2,3,4,4A,5,10,10A-octahydrobenzo[g]quinolin-6-yl)oxy)tetrahydro-2H-pyran-2-carboxylic acid” (H. Lundbeck A/S, priority 2019, dated 2025)
Read-outs that look alike come from different tables or passages of the source.

Experiments:
[1] = Conversion of (Id) to (I) in fresh rat blood; assay type: in vitro ADME; details: 1 μg/mL, 37° C., 0-60 minutes
Description: (§1) Conversion of (Id) in human blood (average of 3 donors) and rat blood (average of 45 donors) to (I) was shown in fresh blood at 37° C. spiked with 1 μg/mL of (Id). (I) was measured at 0, 5, 15, 30 and 60 minutes in isolated plasma. Analysis method and Instrumentation as described in Examples 9 and 10 below in the section “Instrumentation used for analysis of compound (l) from dosing of compounds (Ic) and (Id).”

[2] = Oral dosing of compound (Id) in minipigs; assay type: in vivo, minipig
[3] = Conversion of (Id) to (I) in fresh human blood; assay type: in vitro ADME; details: 1 μg/mL, 37° C., 0-60 minutes
Description: as §1

[4] = pKa values / major species of ionization; assay type: physicochemical
[5] = PK experiments in Wistar rats, plasma compound (I) after oral dosing of prodrugs; assay type: in vivo, rat; details: FIG. 1, doses equal to 287 μg/kg of compound (I)
Description: Plasma was placed on water-ice following collection. Final storage at approximately −70° C.
Mobile phase B: Acetonitrile. […] Flow rate 0.5 mL/min.
The rats had unrestricted access to the diet.
Mobile phase B: Acetonitrile+0.2% formic acid. […] Flow rate 0.3 mL/min.
Dosing and blood sampling for compound (Ic): Han Wistar rats were supplied by Envigo, UK. […] The rats received a standard laboratory diet Teklad 2014C. The rats had unrestricted access to the diet.

rat hepatocytes = assay: Conversion of compound (Id) to compound (I) in rat hepatocytes; assay type: in vitro ADME; details: 1 μg/mL, 37° C., 0.25-60 minutes
Description: (§2) The cell concentration at incubation was 1×10^6 viable cells/mL. The incubations were performed in glass tubes at 37° C. with a total incubation volume of 3.5 mL and with duplicate incubations for each test item. The 3.5 mL of hepatocyte suspension was equilibrated for 10 minutes in a water bath set to 37° C. where after the incubations were initiated by adding 3.5 μL of a stock solution of the test item in DMSO (Dimethyl sulfoxide) and gently inverting the tubes. The final solvent concentration in the incubations was 0.1% DMSO. Samples of 600 μL were withdrawn from the incubations at the pre-determined time points of 0.25, 5, 15, 30 and 60 minutes after ensuring homogeneity of hepatocyte suspensions. The withdrawn volume was added to 1 mL Nunc cryo tubes on wet ice containing 60 μL of ice-cold ascorbic acid (100 mg/mL) and 30 μL of ice cold 100 mM saccharic acid 1,4-lactone in 0.5 M citric acid. The tubes were mixed and 35 μL of a solution of ice cold 20% formic acid was added. The tubes were mixed thoroughly and stored at −80° C. awaiting analysis.

human hepatocytes = assay: Conversion of compound (Id) to compound (I) in human hepatocytes; assay type: in vitro ADME; details: 1 μg/mL, 37° C., 0.25-60 minutes
Description: as §2

rat locomotor activity = assay: Rat locomotor activity (hyperactivity) assay, open field, with PK/PD; assay type: in vivo
Description: Mass spectrometer (UPCLC-MS/MS) Waters Acquity I-Class-Waters Xevo TQ-S. Analytical column Acquity HSS T3 C18 50×2.1 mm, 1.8 μm. Mobile phase A: 10 mM NH4—Formate 0.2% formic acid:Acetonitril (95:5). Mobile phase B: 10 mM NH4—Formate 0.2% formic acid:Acetonitril (5:95). Gradient run from 95/5% to 5/95% in 2.40 minutes. Flow rate 0.3 mL/min. MRM detection of test items and the added analytical standards.
Animals for the study were as described in Example 10. Additionally, rats were administered a single dose of apomorphine subcutaneously.
In total, 206 male CD rats (Charles River, Germany) weighing 200-250 grams (165-190 grams upon arrival) were used in the study. Animals were housed at a standard temperature (22±1° C.) and in a light-controlled environment (lights on from 7 am to […]) with ad libitum access to food and water. The experiment described below was performed in accordance with the standard operating procedures of Charles River Discovery Research Services Finland Ltd. and in accordance with the national Animal Experiment Board of Finland (Eläinkoelautakunta, ELLA) authority on animal testing.
The test device is a square Plexiglass-arena (measuring 40×40×40 cm), in which the movement paths of the rats are recorded by an activity monitor (Med. Associates Inc.). Before the test period is initiated, rats are habituated to their test cage for 60 minutes. Upon completion of habituation, animals were treated with either compound or vehicle and placed back into the open field apparatus. The main test parameter measured is ambulatory distance (recorded in 5-minute segments). Overall time of measurement after receiving initial treatment was 360 minutes. Total follow up period in the study was 420 min, including 60 min of habituation.

Conversion to compound (I) [1]: time dependent conversion
Conversion to compound (I) [3]: time dependent conversion
pKa ([4]; anion / dianion boundary pH, read-out: pKa (third), boundary between major species of ionization): 10.1
pKa ([4]; cation / zwitterion boundary pH, read-out: pKa (first), boundary between major species of ionization): 2.8
pKa ([4]; zwitterion / anion boundary pH, read-out: pKa (second), boundary between major species of ionization): 8.8
Conversion to compound (I) (rat hepatocytes): time dependent conversion
Conversion to compound (I) (human hepatocytes): time dependent conversion
SMILES: CCCN1CCC[C@@H]2Cc3c(ccc(O)c3O[C@@H]3O[C@H](C(=O)O)[C@@H](O)[C@H](O)[C@H]3O)C[C@H]21 [Compound (Id), (2S,3S,4S,5R,6S)-3,4,5-trihydroxy-6-(((4aR,10aR)-7-hydroxy-1-propyl-1,2,3,4,4a,5,10,10a-octahydrobenzo[g]quinolin-6-yl)oxy)tetrahydro-2H-pyran-2-carboxylic acid]
In vivo conversion to compound (I) [2]: In vivo conversion of compound (Id) to compound (I) has also been observed
Plasma profile of compound (I) after oral dosing, in words [5]: slower absorption rate avoiding rapid peak concentrations accompanied by a sustained exposure
Relationship of behavioral effect and plasma concentration (rat locomotor activity; (Id) 100 μg/kg p.o. (FIG. 4), apomorphine 3 mg/kg s.c. (FIG. 5)): correlate with the plasma concentrations of compound (I)
Duration of locomotor effect, in words (rat locomotor activity; (Id) 10 to 300 μg/kg p.o., recording to the 415-minute time point): lasting until the end of recording
Total distance travelled, in words (rat locomotor activity; FIG. 3, (Id) 10, 30, 100 or 300 μg/kg p.o., apomorphine 3 mg/kg s.c., pramipexole 0.3 mg/kg s.c., vs vehicle): significantly increased activity
